IC50 data for one compound are collected here from US20240261294A1, “METHOD FOR TREATING IDH INHIBITOR-RESISTANT SUBJECTS” (Eli Lilly and Company, priority 2021, published 2024).

The test concerns the target T1, IDH2 R140Q + 1319M trans (Homo sapiens, UniProt P48735, I319M/R140Q).
T1 sequence (P48735 40-452 R140Q): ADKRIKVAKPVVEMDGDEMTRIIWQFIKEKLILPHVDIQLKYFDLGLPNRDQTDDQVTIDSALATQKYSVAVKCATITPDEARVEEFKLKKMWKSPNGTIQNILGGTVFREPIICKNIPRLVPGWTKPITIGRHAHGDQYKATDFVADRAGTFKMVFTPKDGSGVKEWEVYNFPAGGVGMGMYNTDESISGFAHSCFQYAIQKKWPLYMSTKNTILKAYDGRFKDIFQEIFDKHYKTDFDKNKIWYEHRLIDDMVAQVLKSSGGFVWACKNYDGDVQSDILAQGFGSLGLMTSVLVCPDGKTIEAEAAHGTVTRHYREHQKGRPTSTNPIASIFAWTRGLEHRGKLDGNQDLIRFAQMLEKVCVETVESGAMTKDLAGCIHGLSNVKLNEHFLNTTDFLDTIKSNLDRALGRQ
T1 sequence (P48735 40-452 I319M): T1 sequence (P48735 40-452 R140Q) with Q101R, I280M
Briefly: Inhibition of 2-HG production in IDH2 mutant U-87 MG cells. To be noted: 72 hours incubation, 12.5K cells/well. The test is classed as cell-based. Here is the method:
Compounds and Formulation. Compound A may be synthesized as described in WO/18/111707. Compound A is prepared as a 20 mM stock in 100% DMSO (dimethyl sulfoxide) (Sigma, D2438) and diluted serially in 100% DMSO to achieve the desired concentrations. DMSO preparations are further diluted with cell culture media prior to addition in the assay.
Cell lines. U-87 MG cells (ATCC, HTB-14) are cultured and assayed in MEM (Gibco, 11095) with 2 mM GlutaMAX (Gibco, 35050), 1 mM Pyruvate (Gibco, 11360), 0.1 mM NEAA ((Non-essential amino acid) Gibco, 11140) and 10% dialyzed FBS (Fetal bovine serum) (Gibco, 26400).
Cell-based inhibition assays. Cell-based assays are performed by measuring 2-HG in U-87 MG cells in which IDH2 mutations are expressed.
DNA constructs encoding IDH2 mutations are introduced into U-87 MG cells using transfection (Promega FuGENE HD, E2311) or lentiviral transduction, and the IDH2-mutant expressing cell lines are selected using blasticidin (5 μg/ml) or puromycin (1 μg/ml). Second site mutations (Q316E, I319M, P167R, and G260A) are evaluated in cis (same monomer as driver mutation within dimer) or in trans (opposite monomer from driver mutation in dimer). For compound treatments, 12,500 or 50,000 cells per well in culture medium (150 μl or 100 μl, respectively) are plated in 96 well cell culture plates (Falcon, 353377) 2 hrs prior to treatment. Cells are treated with serial dilutions of compound A in standard growth media. Plates are incubated in a mammalian cell culture incubator (humidified, 37° C., 5% CO2) for 16 or 72 hrs. Following the incubation period, the media is aspirated and cell extracts are prepared by addition of ice-cold 80% methanol/20% water (100 μL) containing liquid chromatography-mass spectrometry (LC-MS) internal standards (1 μM ^13C4 α-KG and ^13C5 2-HG) per well for ion pairing LC-MS method. 96-well sample plates are then sealed, shaken at 450 rpm for 10 min, and then placed at −20° C. and stored until LC-MS analysis.
LC-MS metabolite analysis of conditioned media and cell lysates. The effect of inhibitors on the concentrations of 2-HG are determined by LC-MS analysis of cell lysates using an ion-pairing method as described below.
Calibration curves are prepared by spiking 2-HG and α-KG into 80% methanol/20% water containing LC-MS internal standards (1 μM ^13C4 α-KG and 1 μM ^13C5 2-HG). The quantitation of 2-HG and α-KG is accomplished using an AB Sciex 6500 mass spectrometer with an Electrospray Ionization (ESI) probe and interfaced with an Ultra Performance Liquid Chromatography (UHPLC) system in the negative multiple-reaction monitoring (MRM) mode. The UHPLC system consists of an Agilent 1290 binary pump, thermostatted column compartment (TCC), and sampler. The injection volume is 1 μL for cell culture extracts. The extracts are chromatographically resolved using a Hypercarb column, 2.1×20 mm, […] Javelin HTS (Thermo Scientific, PN: 35005-022135). Mobile phase A is water/10 mM tributylamine/15 mM acetic acid. Mobile phase B is acetonitrile/20 mM tributylamine/30 mM acetic acid. The solvent flow rate is 1.0 mL/min. The isocratic condition is kept at 26% mobile phase B. The valve, sample loop, and needle are washed with 50% acetonitrile: 50% methanol for 20 seconds. The column temperature is kept at 55° C. Calibration curves are calculated by least-square linear regression with 1/x weighting. 2-HG and α-KG are quantified using standard curve and ratio of the peak area of analytes to internal standard. Data analysis is performed using MultiQuant 3.0 (AB Sciex). The raw data are exported to Microsoft Excel spreadsheets.
Determination of IC50 Curves. IC50 curves for each compound are obtained using four parameter data fitting analysis in GraphPad/Prism software.

Numbering of substitutions follows the chain as printed. Read-outs that look alike come from different tables or passages of the source.

`C=CC(=O)N1CCN([C@@H](CC2CC2)c2ccc([C@H](C)Nc3ncc4c(n3)N(CC)C(=O)OC4)cc2)CC1` [Compound A, 7-[[(1S)-1-[4-[(1S)-2-cyclopropyl-1-(4-prop-2-enoylpiperazin-1-yl)ethyl]phenyl]ethyl]amino]-1-ethyl-4H-pyrimido[4,5-d][1,3]oxazin-2-one]: the IC50 is, setting by setting: (IDH2 R140Q + 1319M trans, 150 μl media/well, read-out: IC50, inhibition of 2-HG production) 12.7 nM; (IDH2 R140Q_I319M trans, read-out: Relative IC50 (nM) Mean, inhibition of 2-HG production) 18 nM.
